# In patent US9505726B2, “Substituted biphenyl amides as P2X3 and P2X2/3 antagonists” (Roche Palo Alto LLC, priority 2009, dated 2016):
# Target: T1, rat P2X3 receptor (Rattus norvegicus, UniProt P49654)
# T1 construct: expressed in transfected cells; host or cells: CHO-K1
# T1 sequence (P49654 1-397): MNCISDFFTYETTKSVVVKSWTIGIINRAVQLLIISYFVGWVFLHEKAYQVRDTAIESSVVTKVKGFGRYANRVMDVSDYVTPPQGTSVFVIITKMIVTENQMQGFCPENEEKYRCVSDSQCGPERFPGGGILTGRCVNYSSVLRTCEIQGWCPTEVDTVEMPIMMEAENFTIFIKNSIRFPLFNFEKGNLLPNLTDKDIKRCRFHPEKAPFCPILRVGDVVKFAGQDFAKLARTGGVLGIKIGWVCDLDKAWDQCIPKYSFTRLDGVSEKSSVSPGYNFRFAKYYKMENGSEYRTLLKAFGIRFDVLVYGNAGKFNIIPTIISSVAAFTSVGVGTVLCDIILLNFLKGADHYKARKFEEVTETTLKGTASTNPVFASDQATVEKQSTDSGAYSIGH
# Experiment: P2X3 FLIPR (Fluorometric Imaging Plate Reader) assay
# Assay type: cell-based
# Details: CHO-K1 cells transfected with cloned rat P2X3; agonist α,β-meATP 1 μM; Fluo-3 AM calcium fluorescence
# Description: CHO-K1 cells were transfected with cloned rat P2X3 or human P2X2/3 receptor subunits and passaged in flasks. 18-24 hours before the FLIPR experiment, cells were released from their flasks, centrifuged, and resuspended in nutrient medium at 2.5×10^5 cells/ml. The cells were aliquoted into black-walled 96-well plates at a density of 50,000 cells/well and incubated overnight in 5% CO2 at 37° C. On the day of the experiment, cells were washed in FLIPR buffer (calcium- and magnesium-free Hank's balanced salt solution, 10 mM HEPES, 2 mM CaCl2, 2.5 mM probenecid; FB). Each well received 100 μl FB and 100 μl of the fluorescent dye Fluo-3 AM [2 μM final conc.]. After a 1 hour dye loading incubation at 37° C., the cells were washed 4 times with FB, and a final 75 μl/well FB was left in each well.
# Test compounds (dissolved in DMSO at 10 mM and serially diluted with FB) or vehicle were added to each well (25 μl of a 4× solution) and allowed to equilibrate for 20 minutes at room temperature. The plates were then placed in the FLIPR and a baseline fluorescence measurement (excitation at 488 nm and emission at 510-570 nm) was obtained for 10 seconds before a 100 μl/well agonist or vehicle addition. The agonist was a 2X solution of α,β-meATP producing a final concentration of 1 μM (P2X3) or 5 μM (P2X2/3). Fluorescence was measured for an additional 2 minutes at 1 second intervals after agonist addition. A final addition of ionomycin (5 μM, final concentration) was made to each well of the FLIPR test plate to establish cell viability and maximum fluorescence of dye-bound cytosolic calcium. Peak fluorescence in response to the addition of α,β-meATP (in the absence and presence of test compounds) was measured and inhibition curves generated using nonlinear regression. PPADS, a standard P2X antagonist, was used as a positive control.
row,SMILES,P2X3 (pIC50 values for the P2X3 receptor)
1,"COCC(C)NC(=O)c1cc(NC(=O)c2ccc(C)cc2C)cc(-c2ccc(C)cc2)c1 (centres unmarked) [Compound 8, 5-(2,4-Dimethyl-benzoylamino)-4′-methyl-biphenyl-3-carboxylic acid (2-methoxy-1-methyl-ethyl)-amide]",5.35
2,"CC(C)C(=O)N(C)c1cc(C(=O)NC(C)c2cnccn2)cc(-c2ccc(F)cc2F)c1 (centres unmarked) [Compound 66, 2′,4′-Difluoro-5-(isobutyryl-methyl-amino)-biphenyl-3-carboxylic acid (1-pyrazin-2-yl-ethyl)-amide]",6.63
3,"CC(=O)N(C)c1cc(C(=O)NC(C)c2cnccn2)cc(-c2ccc(C)cc2)c1 (centres unmarked) [Compound 20, 5-(Acetyl-methyl-amino)-4′-methyl-biphenyl-3-carboxylic acid (1-pyrazin-2-yl-ethyl)-amide]",6.05
4,"Cc1ccc(-c2cc(C(=O)NC(C)c3cnccn3)cc(N(C(=O)C(C)C)c3ccncn3)c2)cc1 (centres unmarked) [Compound 26, 5-(Isobutyryl-pyrimidin-4-yl-amino)-4′-methyl-biphenyl-3-carboxylic acid (1-pyrazin-2-yl-ethyl)-amide]",6.99
5,"COCC(C)NC(=O)c1cc(NC(=O)c2ccccc2)cc(-c2ccc(C)cc2)c1 (centres unmarked) [Compound 5, 5-Benzoylamino-4′-methyl-biphenyl-3-carboxylic acid (2-methoxy-1-methyl-ethyl)-amide]",5.69
6,"Cc1ccc(-c2cc(C(=O)NCc3cnccn3)cc(N(C)C(=O)C(C)C)c2)c(Cl)c1 [Compound 56, 2′-Chloro-5-(isobutyryl-methyl-amino)-4′-methyl-biphenyl-3-carboxylic acid (pyrazin-2-ylmethyl)-amide]",5.6
7,"COC[C@@H](C)NC(=O)c1cc(-c2ccc(F)cc2F)cc(N(C)C(=O)C(C)C)c1 [Compound 65, 2′,4′-Difluoro-5-(isobutyryl-methyl-amino)-biphenyl-3-carboxylic acid ((R)-2-methoxy-1-methyl-ethyl)-amide]",5.38
8,"CCC(C)C(=O)N(C)c1cc(C(=O)N[C@@H](C)CO)cc(-c2ccc(C)cc2)c1 (stereo partly drawn) [Compound 53, 4′-Methyl-5-[methyl-(2-methyl-butyryl)-amino]-biphenyl-3-carboxylic acid ((S)-2-hydroxy-1-methyl-ethyl)-amide]",7.37
9,"COCC(C)NC(=O)c1cc(NC(=O)c2ccc(C)s2)cc(-c2ccc(C)cc2)c1 (centres unmarked) [Compound 2, 5-Methyl-thiophene-2-carboxylic acid [5-(2-methoxy-1-methyl-ethylcarbamoyl)-4′-methyl-biphenyl-3-yl]-amide]",5.2
10,"Cc1ccc(-c2cc(C(=O)NC(C)c3cnccn3)cc(N(C)C(=O)C(C)C)c2)c(F)c1 (centres unmarked) [Compound 58, 2′-Fluoro-5-(isobutyryl-methyl-amino)-4′-methyl-biphenyl-3-carboxylic acid (1-pyrazin-2-yl-ethyl)-amide]",8.25
11,"COCC(C)NC(=O)c1cc(NC(=O)c2sccc2C)cc(-c2ccc(C)cc2)c1 (centres unmarked) [Compound 14, 3-Methyl-thiophene-2-carboxylic acid [5-(2-methoxy-1-methyl-ethylcarbamoyl)-4′-methyl-biphenyl-3-yl]-amide]",5.35
12,"Cc1ccc(-c2cc(C(=O)N[C@@H](C)CO)cc(N(C)C(=O)C(C)C)c2)c(Cl)c1 [Compound 55, 2′-Chloro-5-(isobutyryl-methyl-amino)-4′-methyl-biphenyl-3-carboxylic acid ((S)-2-hydroxy-1-methyl-ethyl)-amide]",5.53
13,"CCN(C(=O)OC)c1cc(C(=O)NC(C)c2cnccn2)cc(-c2ccc(C)cc2)c1 (centres unmarked) [Compound 39, Ethyl-[4′-methyl-5-(1-pyrazin-2-yl-ethylcarbamoyl)-biphenyl-3-yl]-carbamic acid methyl ester]",7.28
14,"CC(NC(=O)c1cc(-c2ccc(Cl)cc2)cc(N(C)C(=O)N2CCOCC2)c1)c1cnccn1 (centres unmarked) [Compound 44, Morpholine-4-carboxylic acid [4′-chloro-5-(1-pyrazin-2-yl-ethylcarbamoyl)-biphenyl-3-yl]-methyl-amide]",5.17
15,"CC(NC(=O)c1cc(-c2ccc(Cl)cc2)cc(N(C)C(=O)N(C)C)c1)c1cnccn1 (centres unmarked) [Compound 57, 4′-Chloro-5-(trimethyl-ureido)-biphenyl-3-carboxylic acid (1-pyrazin-2-yl-ethyl)-amide]",6.26
16,"CCN(C(=O)C1CCOCC1)c1cc(C(=O)NC(C)c2cnccn2)cc(-c2ccc(C)cc2)c1 (centres unmarked) [Compound 41, Tetrahydro-pyran-4-carboxylic acid ethyl-[4′-methyl-5-(1-pyrazin-2-yl-ethylcarbamoyl)-biphenyl-3-yl]-amide]",6.86
17,"CCN(C(=O)CC(C)C)c1cc(C(=O)NC(C)CO)cc(-c2ccc(C)cc2)c1 (centres unmarked) [Compound 30, 5-[Ethyl-(3-methyl-butyryl)-amino]-4′-methyl-biphenyl-3-carboxylic acid (2-hydroxy-1-methyl-ethyl)-amide]",7.33
18,"Cc1ccc(-c2cc(C(=O)NCc3cnccn3)cc(N(C)C(=O)C(C)C)c2)c(F)c1 [Compound 60, 2′-Fluoro-5-(isobutyryl-methyl-amino)-4′-methyl-biphenyl-3-carboxylic acid (pyrazin-2-ylmethyl)-amide]",7.8
19,"COCC(C)NC(=O)c1cc(NC(=O)c2nc(C)oc2C)cc(-c2ccc(C)cc2)c1 (centres unmarked) [Compound 13, 2,5-Dimethyl-oxazole-4-carboxylic acid [5-(2-methoxy-1-methyl-ethylcarbamoyl)-4′-methyl-biphenyl-3-yl]-amide]",5.93
20,"Cc1ccc(-c2cc(C(=O)N[C@@H](C)CO)cc(N(C)C(=O)C(C)C)c2)nc1 [Compound 72, N-((S)-2-Hydroxy-1-methyl-ethyl)-3-(isobutyryl-methyl-amino)-5-(5-methyl-pyridin-2-yl)-benzamide]",7.58
21,"CCC(=O)N(C)c1cc(C(=O)NC(C)COC)cc(-c2ccc(C)cc2)c1 (centres unmarked) [Compound 18, 4′-Methyl-5-(methyl-propionyl-amino)-biphenyl-3-carboxylic acid (2-methoxy-1-methyl-ethyl)-amide]",5.35
22,"COC[C@@H](C)NC(=O)c1cc(-c2ccc(Cl)cc2Cl)cc(N(C)C(=O)C(C)C)c1 [Compound 63, 2′,4′-Dichloro-5-(isobutyryl-methyl-amino)-biphenyl-3-carboxylic acid ((R)-2-methoxy-1-methyl-ethyl)-amide]",5.94
23,"COCC(C)NC(=O)c1cc(NC(=O)c2ccccn2)cc(-c2ccc(C)cc2)c1 (centres unmarked) [Compound 6, Pyridine-2-carboxylic acid [5-(2-methoxy-1-methyl-ethylcarbamoyl)-4′-methyl-biphenyl-3-yl]-amide]",5.62
24,"CC(C)C(=O)N(C)c1cc(C(=O)NC(C)c2cnccn2)cc(-c2ccc(Cl)cn2)c1 (centres unmarked) [Compound 67, 3-(5-Chloro-pyridin-2-yl)-5-(isobutyryl-methyl-amino)-N-(1-pyrazin-2-yl-ethyl)-benzamide]",7.75
25,"Cc1ccc(-c2cc(C(=O)N[C@@H](C)CO)cc(N(C)C(=O)C(C)C)c2)c(F)c1 [Compound 59, 2′-Fluoro-5-(isobutyryl-methyl-amino)-4′-methyl-biphenyl-3-carboxylic acid ((S)-2-hydroxy-1-methyl-ethyl)-amide]",8.16
26,"COCC(=O)N(C)c1cc(C(=O)NC(C)c2cnccn2)cc(-c2ccc(C)cc2)c1 (centres unmarked) [Compound 22, 5-[(2-Methoxy-acetyl)-methyl-amino]-4′-methyl-biphenyl-3-carboxylic acid (1-pyrazin-2-yl-ethyl)-amide]",6.69
